Source: US20090099123A1, “Antisense microRNA and uses therefor” (priority 2007, published 2009)

Key:
RKO and SW480 cells [1] = assay: Induction of apoptosis / PARP cleavage in colon cancer cells (Western blot); type: cell-based
Experimental: (§1) FIG. 8A: Decreased cell survival in RKO cells. […] Cell survival is expressed as the percentage of β-CDODA-Me-treated cells remaining compared to DMSO (set at 100%).
(§2) RKO and SW480 colon cancer cells (2×10^4 per well) were plated in 12-well plates and allowed to attach for 24 hr. The medium was then changed to DMEM/Ham's F-12 medium containing 2.5% charcoal-stripped FBS, and either vehicle (DMSO) or different concentrations of the compound were added. Fresh medium and compounds were added every 48 hr, and cells were then trypsinized and counted after 48 and 96 hr using a Coulter Z1 cell counter. Transfection experiments in RKO and SW480 cells used 0.4 μg of reporter gene constructs and 0.04 μg of β-Gal and LipofectAMINE 2000 reagent (Invitrogen). Results of cell proliferation and transfection studies are expressed as means±S.E. for at least three replicate determinations for each treatment group. Western blots were determined with whole cell lysates essentially.

Sp1 gene promoter = assay: Sp1 promoter construct luciferase activity in RKO cells; type: cell-based
Experimental: as §2

RKO cells as xenografts = assay: Xenograft study in athymic nude mice; type: in vivo
Experimental: (§3) FIGS. 13A-13D show the in vitro and in vivo effects of β-CDODA-Me on G2/M arrest and inhibition of tumor growth. Effects of β-CDODA-Me (FIG. 13A, 13B) and as-miR-27a (FIG. 13C) on Myt-1 and cdc2 phosphorylation. Colon cancer cells were treated with different amounts of β-CDODA-Me or as-miR-27a for the indicated times, and Myt-1 expression and cdc2 phosphorylation were determined by real time PCR or Western blots, respectively. […] FIGS. 13D-13F: β-CDODA-Me inhibit tumor growth (volume) (FIG. 13D), weight (FIG. 13E) and miR-27a expression (FIG. 13F) in a mouse xenograft model. Nude mice bearing RKO cells as xenografts were treated with corn oil (solvent control) or β-CDODA-Me (15 mg/kg/d), and tumor volumes, tumor weights, and miR-27a expression were determined.
Mice were used in accordance with institutional guidelines when they were 8-12 wk old. To produce tumors, RKO cells were harvested from subconfluent cultures by a brief exposure to 0.25% trypsin and 0.02% EDTA and only suspensions consisting of single cells with >90% viability were used for the injections. A xenograft was established by s.c. injection of the cells (5×10^6) into the flanks of individual mice and, after 6 days, mice were randomized into two groups of 5 mice per group and dosed by oral gavage in corn oil or 15 mg/kg/d B-CDODA-Me 5 days a week for 22 days. The mice were weighed, and tumor size was measured every third day with calipers to permit calculation of tumor volumes: V=LW^2/2, where L and W were length and width, respectively. Final tumors weights were determined at the end of the dosing regimen. Tumor tissues and selected body organs (liver and kidney) were either stored in RNAlater solution (per manufacture's recommendations) for later microRNA analysis, snap frozen and stored at −80° C., or fixed in 10% formalin and embedded in paraffin.

[2] = test system: Sp1, Sp3, Sp4, VEGF, VEGFR1 and survivin; assay: Sp and Sp-dependent mRNA and proteins in colon cancer cells (semi-quantitative RT-PCR, Western blot); type: cell-based
Description: (§4) ID NO: 8), ZBTB10 (sense [NT] ID NO: 9); antisense [NT] ID NO: 10), VEGF (sense [NT] ID NO: 11); antisense [NT] ID NO: 12), VEGFR1 (sense [NT] ID NO: 13); antisense [NT] ID NO: 14), Survivin (sense [NT] ID NO: 15); antisense [NT] ID NO: 16) and GAPDH (sense [NT] ID NO: 17); antisense [NT] ID NO: 18).

[3] = test system: RKO and SW480 colon cancer cells; assay: Cell proliferation assay in colon cancer cells; type: cell-based
Experimental: as §1, §2

Sp3 gene promoter = assay: Sp3 promoter construct luciferase activity in RKO cells; type: cell-based
Experimental: as §2

miR-27a [4] = assay: miR-27a by quantitative real time PCR in colon cancer cells; type: cell-based; details: RKO and SW480 cells, 18 hr
Experimental: (§5) cDNA was prepared from the RKO and SW480, cell lines using Reverse Transcription System (Promega). Each PCR was carried out in triplicate in a 20-μl volume using SYBR Green Mastermix (Applied Biosystems, Foster City, Calif.) for 15 min at 95° C. for initial denaturing, followed by 40 cycles of 95° C. for 30 s and 60° C. for 1 min in the Applied Biosystems 7900HT Fast Real-time PCR System. The ABI Dissociation Curves software was used following a brief thermal protocol (95° C. for 15 s and 60° C. for 15 s, followed by a slow ramp to 95° C.) to control for multiple species in each PCR amplification. Values for each gene were normalized to expression levels of TATA-binding protein. The primers used for real-time PCR were Myt-1 (sense 5′-CCTTCCAAGAGTAGCTCCAATTC-3′ (SEQ ID NO: 19); antisense 5′-GCC GGT AGC TCC CAT ATG G-3′) (SEQ ID NO: 20) and TATA-binding protein (sense 5′-TGC ACA GGA GCC AAG AGT GM-3′ (SEQ ID NO: 21); antisense 5′-CACATCACAGCTCCCCACCA-3′) (SEQ ID NO: 22). miRNA was extracted using the mirVana miRNA extraction kit (Applied Biosystems). Quantification of miRNA (RNU6B and miRNA-27a) was done using the Taqman miRNA kit (Applied Biosystems) according to the manufacturer's protocol with real-time PCR. U6 small nuclear RNA was used as a control to determine relative miRNA expression.

RKO and SW480 cells [5] = assay: FACS cell cycle analysis in colon cancer cells; type: cell-based
Experimental: Effects of β-CDODA-Me. SW480 (FIG. 12A) and RKO (FIG. 12B) cells were treated for 24 hr with DMSO(O), 2.5 and 5.0 μM β-CDODA-Me, and analyzed by FACS analysis. FIG. 12C: iSp modulates Sp protein expression and the cell cycle in SW480 and RKO cells. Cells were transfected with iSp, a combination of small inhibitory RNAs for Sp1, Sp3 and Sp4 or a non-specific oligonucleotide (iLamin), and analyzed for Sp proteins by Western blots (to confirm Sp knockdown) and FACS analysis. FIG. 12D: as-miR-27a modulates the cell cycle. SW480 and RKO cells were transfected with different amounts of as-miR-27a and, after 48 hr, analyzed by FACS. All experiments in FIGS. 12A-12D were repeated three times, and results are expressed as means±SE. Significant (p<0.05) changes compared to untreated (0) or iLamin-treated cells are indicated by asterisks.
RKO and SW480 cells were treated with either the vehicle (DMSO) or the compound for 24 hr or with as-miR27a. Cells were trypsinized, centrifuged, and resuspended in staining solution containing 50 μg/mL propidium iodide, 4 mmol/L sodium citrate and 30 units/mL RNase. After incubation at room temperature for 1 hr, cells were analysed on a FACS Vantage SE DiVa made by Becton Dickinson (BD), using BD FACSDiva Software V4.1.1. Propidium iodide (PI) fluorescence was collected through a 610SP bandpass filter, and list mode data were acquired on a minimum of 50,000 single cells defined by a dot plot of PI width vs. PI area. Data analysis was performed in BD FACSDiva Software V4.1.1 using PI width vs. PI area to exclude cell aggregates.

Myt-1, Wee-1 and cdc2 = assay: Myt-1 and Wee-1 expression and cdc2 phosphorylation in colon cancer cells; type: cell-based
Experimental: as §3, §5

miR-27a [6] = details: these and other cancer cells (refs 23, 42, 43); cited from earlier work
ZBTB10 = ZBTB10 by semi-quantitative RT-PCR in colon cancer cells; type: cell-based; details: RKO or SW480 cells, 18 hr
Description: as §4

[7] = test system: prostate and pancreatic tumors and cells; details: cited from earlier work
[8] = 15 mg/kg/d oral gavage, 5 days a week for 22 days, vs corn oil

Structure (SMILES): COC(=O)[C@@]1(C)CC[C@]2(C)CC[C@]3(C)C(=CC(=O)[C@@H]4[C@@]5(C)C=C(C#N)C(=O)C(C)(C)[C@@H]5CC[C@]43C)[C@@H]2C1 [β-CDODA-Me, methyl-2-cyano-3,11-dioxo-18β-olean-1,12-dien-30-oate]
- apoptosis (RKO and SW480 cells [1]; RKO and SW480 cells): induced apoptosis
- caspase-dependent PARP cleavage (RKO and SW480 cells [1]; colon cancer cells (β-CDODA-Me: RKO; ZBTB10: SW480 and RKO)): induced
- luciferase activity, Sp1 promoter constructs (pSp1For4, pSp1For2, pSp1For1) (Sp1 gene promoter): decreased luciferase activity
- body or organ weight loss associated with toxic side effects (RKO cells as xenografts; 15 mg/kg/d): not accompanied by any body or organ weight loss
- miR-27a expression in tumors (RKO cells as xenografts; [8]): inhibited
- tumor growth (volume) (RKO cells as xenografts; [8]): inhibited
- tumor weight (RKO cells as xenografts; [8]): inhibited
- Sp1, Sp3 and Sp4 mRNA levels ([2]; 24 hr, semi-quantitative RT-PCR): decreased expression
- expression of Sp-dependent proteins survivin, VEGFR1 (Flt-1) and VEGF ([2]; Western blot): decreased expression
- proliferation ([3]; 0.5-5 μM, 4 days): decreased proliferation
- proliferation and apoptosis responses after cotreatment with T007 ([3]; T007 10 μM): not affected
- luciferase activity, Sp3 promoter constructs (pSp3For5, pSp3For2) (Sp3 gene promoter): decreased luciferase activity
- miR-27a (miR-27a [4]): decreased
- cell cycle arrest (RKO and SW480 cells [5]): induced a G2/M arrest
- percentage of cells in S phase (RKO and SW480 cells [5]; 24 hr, 2.5 and 5.0 μM respectively): increased and then decreased
- cells in G2/M (RKO and SW480 cells [5]; 24 hr, 2.5 and 5.0 μM, vs DMSO): increase
- percentage of cells in G0/G1 (RKO and SW480 cells [5]; 24 hr, 2.5 and 5.0 μM, vs DMSO): concentration-dependent decrease
- cdc2 phosphorylation (Myt-1, Wee-1 and cdc2; RKO and SW480 cells, Western blot): time-dependent induction
- Myt-1 mRNA expression (Myt-1, Wee-1 and cdc2; RKO and SW480 cells, real time PCR): induced
- Wee-1 expression (Myt-1, Wee-1 and cdc2; SW480 or RKO cells): did not affect
- levels of miR-27a RNA (miR-27a [6]): decrease
- ZBTB10 levels (ZBTB10): induced

Structure (SMILES): Cc1c(Cl)cccc1Nc1ccccc1C(=O)O [tolfenamic acid]
- growth of prostate and pancreatic tumors and cells [7]: inhibit growth
- levels of miR-27a RNA (miR-27a [6]): decrease
